The results in this text go back to US5698401A, “Use of nuclear magnetic resonance to identify ligands to target biomolecules” (priority 1995, dated 1997).

pKd, pKi: −log10 of the molar value. Read-outs that look alike come from different tables or passages of the source.

A short description of one data set: Water solubility. The data set is classed as physicochemical.
The target of another data set is T1, Stromelysin (Homo sapiens, UniProt P08254).
T1 construct: initiating methionine (N); made in house; host or cells: E. coli BL21(DE3)/pLysS, pET3d
The data set can be described thus: Inhibition of degradation (autolysis) of stromelysin. The data set is classed as biochemical. As to conditions: 500 mM. The procedure: Studies were performed to design new ligands that bound to the catalytic domain of stromelysin. Because stromelysin undergoes autolysis, an inhibitor was sought to block the degradation of stromelysin. That inhibitor would facilitate the screening of other potential ligands that bind to other sites on the enzyme.
A variety of hydroxamic acids of the general formula R-(CO)NHOH were screened for binding to stromelysin using the procedures set forth in Example 2.

Data set [1] has as its target T2, catalytic domain of stromelysin (Homo sapiens, UniProt P08254).
T2 construct: initiating methionine (N); made in house; host or cells: E. coli BL21(DE3)/pLysS, pET3d
Nature of the data set: Enzymatic assay, cleavage of a fluorogenic substrate by stromelysin. The data set is classed as biochemical. The procedure: The target molecule was the catalytic domain of stromelysin prepared in accordance with the procedures of Example 1. […] The KD values so obtained were compared to an inhibition constant KI as determined in an enzymatic assay.
The enzymatic assay measured the rate of cleavage of a fluorogenic substrate by following the fluorescence increase upon peptide cleavage which causes a separation between the fluorophore and quencher. Enzymatic activity was measured using a matrix of different concentrations of acetohydroxamic acid and biaryl compounds.
Individual compound concentration varied due to solubility and potency.
All NMR measurements were performed in the presence of 500 mM acetohydroxamic acid, except for the titration of acetohydroxamic acid itself. Dissociation constants were obtained from the dependence of the observed chemical shift changes upon added ligand. Inhibition constants were then obtained from the inhibition data using standard procedures.

The target in data set [2] is T2, catalytic domain of stromelysin. The data set can be described thus: NMR binding (2D 15N/1H HSQC) to the catalytic domain of stromelysin. As to the method:
The catalytic domain of stromelysin was prepared in accordance with the procedures of Example 1. The protein solutions used in the screening assay contained the uniformly ^15 N-labeled catalytic domain of stromelysin (0.3 mM), acetohydroxamic acid (500 mM), CaCl2 (20 mM), and sodium azide (0.5%) in a H2 O/D2 O (9/1) TRIS buffered solution (50 mM, pH=7.0).
Two-dimensional ^15 N/^1 H NMR spectra were generated at 29° C. on a Bruker AMX500 NMR spectrometer equipped with a triple resonance probe and Bruker sample changer. The ^15 N/^1 H HSQC spectra were acquired as 80x1024 complex points using sweep widths of 2000 Hz (^15 N, t^1) and 8333 Hz (^1 H, t2). […] All NMR spectra were processed and analyzed on Silicon Graphics computers using in-house-written software. […]
Various biaryl compounds of structure I were tested for binding to stromelysin at differing concentrations. The ^15 N/^1 H spectra generated at each concentration were evaluated to quantify differences in the spectra as a function of compound concentration. A binding or dissociation constant (KD)was calculated, using standard procedures well known in the art, from those differences. […]
In a first study, binding constants were determined, both by the NMR method of the present invention, and by a prior an enzymatic assay. […] The KD values so obtained were compared to an inhibition constant KI as determined in an enzymatic assay. […]

T2 sequence (P08254 100-273): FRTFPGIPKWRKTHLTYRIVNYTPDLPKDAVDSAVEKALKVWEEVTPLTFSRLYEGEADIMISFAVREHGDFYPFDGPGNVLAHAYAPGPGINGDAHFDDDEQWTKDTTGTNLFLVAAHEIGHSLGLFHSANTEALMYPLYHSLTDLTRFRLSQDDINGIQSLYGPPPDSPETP
T1 sequence (P08254 100-273): as above

As for `CC(=O)NO` [Acetohydroxamic acid, acetohydroxamic acid], the water solubility entry in the data set “Water solubility” is “good water solubility”. Further, the “inhibition of the degradation of the enzyme” value against Stromelysin is “inhibited the degradation of the enzyme”.

For the compound `c1ccc(-c2ccncc2)cc1` [Compound 7], the pKi in data set [1] is 3.49. Moreover, the pKd in data set [2] is 3.70; in data set [2] (Table 3, in the presence of 500 mM acetohydroxamic acid, read-out: NMR KD) it was 3.77.

For orientation: pKi means −log10 of the Ki, conventionally taken in molar units. One may read the pKd as −log10 of the Kd, conventionally taken in molar units.
